In US20230109839A1, “THERAPEUTIC AGENT FOR TAUOPATHIES” (SUMITOMO PHARMA CO., LTD., priority 2020, published 2023):
“Also recorded” adds a separate entry of the source. Where two headings read alike, the source gives them in different places.

Experiments:
APP-Tg mouse = test: Evaluation of the cognitive function by novel object recognition test (NORT) in APP-Tg mice (Test 3); assay type: in vivo; parameters: key to Discrimination index: (novel − known search time)/(novel + known search time); conditions: for improvement of cognitive function (NORT) / improvement of cognitive function (NORT), summary of the above results: APP-Tg mice; for improvement of cognitive function (NORT): Elacridar orally 100 mg/kg 2 hours before, test compound intraperitoneally 30 minutes before the first trial run; for improvement of cognitive function (NORT), summary of the above results: alone, with Elacridar or with ABT depending on the compound; for Discrimination index: APP-Tg mouse, with Elacridar 100 mg/kg orally 2 hours before first trial run
Experimental: Test 3: Evaluation of the Cognitive Function by Novel Object Recognition Test (Hereinafter, Also Referred to as “NORT”)
The present test is for evaluating the improvement of cognitive function with the test compounds. When an APP-Tg mouse which is an AD (Alzheimer's disease) model mouse is evaluated by NORT, the memory for a familiar object decreases depending on the time interval between the first trial run (training) and the second trial run (test). For example, if the first trial run is done and 3 hours later the second one is done, there is no difference in the searching times between novel object and known object for the APP-Tg mouse, compared with a healthy mouse. Thus, the APP-Tg mouse suffers from significant amnesia.
The APP-Tg mouse used herein was prepared by constructing an expression cassette linked to human APP751 isoform to which Swedish (K670N/M671L) and Indiana (V717F) mutation were introduced at downstream of mouse Thy-1 promoter, then injecting the expression cassette into a mouse fertilized egg, and transplanting it to a host mouse. The prepared mouse presents with intracerebral AB accumulation and cognitive dysfunction from early on, and thus the mouse can be used for the evaluation of cognitive function. APP-Tg mouse has been also reported in Non-patent literature 6.
To the prepared APP-Tg mouse, the test compound was administered, and then the first trial run was done for the mouse 30 minutes after the intraperitoneal administration or after 10 days of mixed diet administration. The second trial run was done 3 hours after the first trial run, and the searching times between novel object and known object in the second trial were evaluated. The discrimination index was calculated from the searching time for novel object and known object in the second trial run, and the improvement of cognitive function of the test compound was confirmed by comparing the discrimination index with the test compound-unadministered group as an index of the cognitive function. The discrimination index was calculated by the following formula.
Discrimination index={(Searching time for novel object)−(Searching time for known object)}/{(Searching time for novel object)+(Searching time for known object)}
The present test can be also done with a combination with Elacridar (Tokyo Chemical Industry Co., Ltd.). Elacridar can inhibit P-gp and BCRP which are excretion transporters expressed in the blood-brain barrier and thereby Elacridar has the effect of improving the transferability of the test compound to the brain. Eracridal was orally administered to APP-Tg mice at 100 mg/kg 2 hours before the first trial run, and then the test compound was intraperitoneally administered to the mice 30 minutes before the first trial run according to the above method. And, the improvement of cognitive function was evaluated. The significant difference from the vehicle-administered group was determined using the parametric Dunnett multiple comparison test.
And, the present test can be also done with a combination with ABT (1-aminobenzotriazole) (Tokyo Chemical Industry Co., Ltd.). ABT has the effect of improving the blood concentration of the test compound by inhibiting CYP and suppressing metabolism. The test compound and ABT (1 mg/g-food) were administered with food to APP-Tg mice for 10 days, and then the improvement of cognitive function was evaluated according to the above method. The significant difference from the vehicle-administered group was determined using the parametric Dunnett multiple comparison test.

human Nav1.1 = molecular target: T1, human Nav1.1 (Homo sapiens, UniProt P35498); test: Amplification of Nav1.1-derived voltage-gated sodium current (Nav1.1 current), automated patch clamp (Test 1); assay type: cell-based; conditions: for activation at 1 µM: read-out: Nav1.1 current amplification rate (%)
T1 construct: host or cells: HEK293
Procedure, shortened: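 Compound-induced change in ramp-evoked sodium current peak and AUC was expressed as 100×post/pre ratio minus 100. Recordings used automated patch clamp in voltage-clamp mode on a stable human Nav1.1 HEK293 line, including only cells above 500 pA. Compounds were delivered in extracellular fluid containing 1% DMSO.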

[1] = HEK293, Concentration for evaluation 1 μM, HEK293 cell line stably expressing human Nav1.1
[2] = Concentration for evaluation 1 μM, HEK293 cell line stably expressing human Nav1.1
[3] = HEK293, concentration for evaluation 1 μM, HEK293 stably expressing human Nav1.1
[4] = Concentration for evaluation 10 μM, HEK293 cell line stably expressing human Nav1.1
[5] = Concentration for evaluation 3 μM, HEK293 cell line stably expressing human Nav1.1
[6] = concentration for evaluation 1 μM, HEK293 stably expressing human Nav1.1

Structure (SMILES): O=C(Cn1ncc2ncc(N3CCC4(CC4)C(F)(F)C3)nc21)Nc1ccn2ncnc2c1 [Example 609, 2-[6-(4,4-difluoro-6-azaspiro[2.5]octan-6-yl)-1H-pyrazolo[3,4-b]pyrazin-1-yl]-N-([1,2,4]triazolo[1,5-a]pyridin-7-yl)acetamide]
- improvement of cognitive function (NORT) (APP-Tg mouse; 100 mg/kg): some improvement of cognitive function; also recorded: strong improvement of cognitive function
- improvement of cognitive function (NORT), summary of the above results (APP-Tg mouse): some improvement of cognitive function
- Discrimination index (APP-Tg mouse; dose 60 (mg/g i.p.)): 0.29
- Discrimination index (APP-Tg mouse): 0.29
- activation at 1 µM (human Nav1.1; [1]): 84%

Structure (SMILES): CN(c1cnc2cnn(CC(=O)Nc3ccn4ncnc4c3)c2n1)C1CCCC1 [Example 593, 2-{6-[cyclopentyl(methyl)amino]-1H-pyrazolo[3,4-b]pyrazin-1-yl}-N-([1,2,4]triazolo[1,5-a]pyridin-7-yl)acetamide]
- improvement of cognitive function (NORT) (APP-Tg mouse): some improvement of cognitive function
- improvement of cognitive function (NORT), summary of the above results (APP-Tg mouse): some improvement of cognitive function
- Discrimination index (APP-Tg mouse; dose 60 (mg/g i.p.)): 0.20
- Discrimination index (APP-Tg mouse): 0.11
- activation at 1 µM (human Nav1.1; [1]): 78%

Structure (SMILES): CC1CC=C(c2ccc(=O)n(CC(=O)Nc3ccnc(N4CCOCC4)c3F)n2)CC1 (stereo not shown) [Example 383]
- Nav1.1 current amplification rate (%) (human Nav1.1; [2]): 84%

Structure (SMILES): CC1CC=C(c2ccc3cnn(CC(=O)Nc4ccc5ocnc5c4)c3n2)CC1 (stereo not shown) [Example 883]
- activation at 1 µM (human Nav1.1; [3]): 164%

Structure (SMILES): CC1CC=C(c2ccc(=O)n(CC(=O)Nc3ccc(C#N)cc3)n2)CC1 (stereo not shown) [Example 41]
- Nav1.1 current amplification rate (%) (human Nav1.1; [4]): 324%

Structure (SMILES): CC1(C)CC=C(c2ccc(=O)n(CC(=O)N3CCN(c4ccccn4)CC3)n2)CC1 [Example 439]
- Nav1.1 current amplification rate (%) (human Nav1.1; [4]): 87%

Structure (SMILES): CC1CC=C(c2ccc(=O)n(CC(=O)N3CCOc4c(-c5cn[nH]c5)cccc43)n2)CC1 (stereo not shown) [Example 290]
- Nav1.1 current amplification rate (%) (human Nav1.1; [5]): 94%

Structure (SMILES): COc1cccc2c1CCN2C(=O)Cn1nc(C2=CCC(C)(C)CC2)ccc1=O [Example 431]
- Nav1.1 current amplification rate (%) (human Nav1.1; [4]): 11%

Structure (SMILES): Cc1nc2cc(NC(=O)Cn3nc(C4=CCC(C)CC4)ccc3=O)cnc2s1 (stereo not shown) [Example 326]
- Nav1.1 current amplification rate (%) (human Nav1.1; [5]): 132%

Structure (SMILES): CN1CCN(c2cccc3c2CCN3C(=O)Cn2ncc3ncc(N(C)C4CCC4)nc32)CC1 [Example 697]
- Nav1.1 current amplification rate (%) (human Nav1.1; [2]): 21%

Structure (SMILES): CN(CC1CC1)c1cnc2cnn(CC(=O)Nc3ccc4ncnn4c3)c2n1 [Example 663]
- Nav1.1 current amplification rate (%) (human Nav1.1; [2]): 13%

Structure (SMILES): COc1cc(N2CCN(C(=O)Cn3nc(C4=CCC(C)CC4)ccc3=O)CC2)ccc1F (stereo not shown) [Example 413]
- Nav1.1 current amplification rate (%) (human Nav1.1; [5]): 27%

Structure (SMILES): N#Cc1cnc(NC(=O)Cn2ncc3cnc(N4CCC5(CC5)C(F)(F)C4)nc32)cn1 [Example 828]
- Nav1.1 current amplification rate (%) (human Nav1.1; [6]): 108%

Structure (SMILES): CO[C@@H]1CCN(Cc2cccc3c2CCN3C(=O)Cn2nc(C3=CCC(C)CC3)ccc2=O)C1 (stereo partly shown) [Example 273]
- Nav1.1 current amplification rate (%) (human Nav1.1; [2]): 77%

Structure (SMILES): CN(c1ncc2cnn(CC(=O)Nc3cnc4cccnc4c3)c2n1)C1CC(C)(C)C1 [Example 844]
- activation at 1 µM (human Nav1.1; [3]): 221%

Structure (SMILES): CC1CC=C(c2ccc(=O)n(CC(=O)NC3CN(c4ccccc4)C3)n2)CC1 (stereo not shown) [Example 372]
- Nav1.1 current amplification rate (%) (human Nav1.1; [4]): 52%

Structure (SMILES): CC1CCN(c2ccc(=O)n(CC(=O)Nc3ccc4nccn4c3)n2)CC1 [Example 90]
- Nav1.1 current amplification rate (%) (human Nav1.1; [4]): 31%

Structure (SMILES): O=C(Cn1nc(C2=CCC(F)(F)CC2)ccc1=O)Nc1ccn2ccnc2c1 [Example 464]
- Nav1.1 current amplification rate (%) (human Nav1.1; [4]): 18%

Structure (SMILES): Cc1nc2ccc(NC(=O)Cn3nc(C4=CCC(C)CC4)ccc3=O)cn2n1 (stereo not shown) [Example 347]
- Nav1.1 current amplification rate (%) (human Nav1.1; [2]): 37%

Structure (SMILES): CC1CC=C(c2ccc(=O)n(CC(=O)Nc3ccc(-n4ccnc4)nc3)n2)CC1 (stereo not shown) [Example 377]
- Nav1.1 current amplification rate (%) (human Nav1.1; [2]): 134%

Structure (SMILES): COc1cc(=O)n(CC(=O)N2CCN(c3cncc(F)c3)CC2)nc1C1=CCC(C(F)(F)F)CC1 (stereo not shown) [Example 486]
- Nav1.1 current amplification rate (%) (human Nav1.1; [4]): 148%

Structure (SMILES): Cc1cc(-c2ncc3cnn(CC(=O)Nc4ccn5ncnc5c4)c3n2)oc1C [Example 781]
- Nav1.1 current amplification rate (%) (human Nav1.1; Concentration for evaluation 50 μM, HEK293 cell line stably expressing human Nav1.1): 15%

Structure (SMILES): O=C(Cn1nc(C2=CCCCC2)ccc1=O)N1CCc2c(N3CCOCC3)cccc21 [Example 480]
- Nav1.1 current amplification rate (%) (human Nav1.1; [2]): 110%

Structure (SMILES): CC1CCN(c2nn(CC(=O)Nc3ccc(C#N)cc3)c(=O)c3c2CCCC3)CC1 [Example 36]
- Nav1.1 current amplification rate (%) (human Nav1.1; [4]): 312%

Structure (SMILES): CN(c1cnc2cnn(CC(=O)N3CCc4c3cccc4C(C)(C)O)c2n1)C1CC1 [Example 734]
- Nav1.1 current amplification rate (%) (human Nav1.1; [2]): 107%

Structure (SMILES): CC1CC=C(c2ccc(=O)n(CC(=O)N3CCN(c4cncc(OC(F)F)c4)CC3)n2)CC1 (stereo not shown) [Example 405]
- Nav1.1 current amplification rate (%) (human Nav1.1; [5]): 268%

Structure (SMILES): O=C(Cn1ncc2cnc(N3CCC4(CCC4)CC3)nc21)Nc1ccn2ncnc2c1 [Example 766]
- Nav1.1 current amplification rate (%) (human Nav1.1; [2]): 41%

Structure (SMILES): N#Cc1ccc(NC(=O)Cn2nc(N3CCC(F)(F)CC3)ccc2=O)cc1 [Example 5]
- Nav1.1 current amplification rate (%) (human Nav1.1; [4]): 6%

Structure (SMILES): CN(CC1CC(F)(F)C1)c1ncc2cnn(CC(=O)Nc3ccn4ncnc4c3)c2n1 [Example 799]
- Nav1.1 current amplification rate (%) (human Nav1.1; [6]): 35%

Structure (SMILES): CC1CC=C(c2ccc(=O)n(CC(=O)N3CCc4c(CNCC(F)F)cccc43)n2)CC1 (stereo not shown) [Example 312]
- Nav1.1 current amplification rate (%) (human Nav1.1; [2]): 80%

Structure (SMILES): CC1(C)CC=C(c2ccc(=O)n(CC(=O)Nc3ccn4ccnc4c3)n2)CC1 [Example 425]
- Nav1.1 current amplification rate (%) (human Nav1.1; [4]): 283%

Structure (SMILES): Cc1nc2cc(NC(=O)Cn3nc(C4=CCC(C)CC4)ccc3=O)ccc2o1 (racemic) [Example 422]
- Nav1.1 current amplification rate (%) (human Nav1.1; [4]): 287%

Structure (SMILES): CN(CC1CC1)c1cnc2cnn(CC(=O)Nc3ccc(C#N)nc3)c2n1 [Example 748]
- activation at 1 µM (human Nav1.1; [1]): 17%

Structure (SMILES): O=C(Cn1ncc2cnc(N3CCC4C(C3)C4(F)F)nc21)Nc1ccc2ncnn2c1 (stereo not shown) [Example 816]
- Nav1.1 current amplification rate (%) (human Nav1.1; [6]): 13%

Structure (SMILES): Cc1noc2ccc(NC(=O)Cn3nc(C4=CCC(C)CC4)ccc3=O)cc12 (racemic) [Example 423]
- Nav1.1 current amplification rate (%) (human Nav1.1; [4]): 11%

Structure (SMILES): COc1cc(C2=CCC(C(F)(F)F)CC2)nn(CC(=O)N2CCc3c(N4CCOCC4)cccc32)c1=O (stereo not shown) [Example 474]
- Nav1.1 current amplification rate (%) (human Nav1.1; [4]): 235%

Structure (SMILES): CC1CC=C(c2ccc(=O)n(CC(=O)Nc3cncc(-c4cnn(C)c4)c3)n2)CC1 (stereo not shown) [Example 378]
- Nav1.1 current amplification rate (%) (human Nav1.1; [2]): 37%

Structure (SMILES): N#Cc1ccc(NC(=O)Cn2nc(N3CCC(C(F)(F)F)CC3)ccc2=O)cc1 [Example 10]
- Nav1.1 current amplification rate (%) (human Nav1.1; [4]): 124%
